Source: US7045343B2, “Sterilization indicator test packs” (3M Innovative Properties Company, priority 1998, dated 2006)

Legend:
[1] = tested on: enzyme associated with Bacillus stearothermophilus spores; assay: Rapid enzyme fluorescence readout of dual rapid readout indicators after prevacuum steam sterilization; type: biochemical; details: 4-pulse prevacuum steam 121° C.
Description: (§1) The indicators prepared for the Examples were dual rapid readout indicators that provided both a rapid, enzyme-based efficacy test and a confirmatory spore outgrowth test. Spores coated on the carrier strip 16 served as the source of active enzyme whose activity was measured by the rapid enzyme test. These same spores were then incubated in the spore outgrowth portion of the test.
(§2) Bacillus stearothermophilus, commercially available as ATCC 7953 from American Type Culture Collection, Rockville, Md., was grown overnight (16 hours) at 58° C. in tryptic soy broth. This culture was used to inoculate the surface of agar plates consisting of 8 g/l nutrient broth, 4 g/l yeast extract, 0.1 g/l manganese chloride and 20 g/l agar at pH 7.2. Plates were incubated at 58° C. for 72 hours. Spores were scraped from the plates and suspended in sterile distilled water. The spores were separated from the vegetative debris by centrifuging the suspension at 7000 rpm and 4° C. for 20 minutes. The supernatant was poured off and the spores were resuspended in sterile distilled water. The cleaning procedure was repeated several times. After the final wash, the spores were suspended in sterile distilled water, at a concentration of approximately 1×10^8 spores per milliliter.
(§3) The spores were then treated with the chemicals identified in Tables 1–5. All chemicals tested were obtained from commercial sources. The spores were centrifuged at 6000 rpm for 10 minutes. The supernatant and coating chemical mixtures were heated at 60–80° C. for several minutes and vortexed to get the material into solution. The spores were then mixed into the sterilant-resistant chemical solution. The sterilant-resistant chemical solution was applied to 5×25 mm, 591 A paper strips (Schleicher & Schuell, Inc., Keene, N.H.) by pipetting 10–15 microliters to each strip for a final population of about 1×10^6 spores per strip. The strips were dried 16 hours at 37° C.
(§4) The treated spore strips were placed on the bottom of the outer container 12 of the indicator 10 and a barrier was inserted between the spore strip 16 and the inner container 18, which contained enzyme substrate. A […] ( 11/16 inch) disc of polypropylene blown microfiber material, with a weight of 200 g/m^2, commercially available as “THINSULATE™ 200-B brand Thermal Insulation” from 3M Company, St. Paul, Minn., was used as the barrier. The inner container 18 contained 0.67 ml nutrient medium, consisting of 17 g of a bacteriological peptone and a 0.17 g/l of L-alanine, as well as 0.1 g 4-methylumbelliferyl-alpha-D-glucoside, commercially available from Sigma Chemical Company, St. Louis, Mo., dissolved in 200 microliters of N,N-dimethylformamide, and 0.03 g bromocresol purple pH indicator dye, per liter of water. The pH of the enzyme substrate and nutrient medium solution was adjusted to 7.6 with 0.1N sodium hydroxide.
(§5) Sterilization indicators were made as described above with each of the chemicals and concentrations described in Table 1. Control indicators were made using untreated spores. The indicators were placed in metal instrument trays and exposed at 121° C. in a Getinge Steam Sterilizer (Getinge International, Inc., 1100 Towbin Ave., Lakewood, N.J.) using a 4-pulse prevacuum cycle at 121° C. with a vacuum level of 0.075–0.085 bar and a steam pulse to 1.00 bar for each pulse. Indicators were exposed in the sterilizer for between 7 and 13 minutes. This cycle is depicted in the time-pressure diagram in FIG. 5. After exposure the inner containers containing the enzyme substrate and nutrient medium were crushed and the indicators were incubated at 60° C. The indicators were examined for fluorescence using a 3M™ ATTEST™ Model 190 Rapid Autoreader, commercially available from 3M Company, St. Paul, Minn. Additionally, spore growth, as indicated by a color change from purple to yellow, was determined visually after 168 hours of incubation at 60° C. […]

[2] = tested on: Bacillus stearothermophilus spores; assay: Spore outgrowth (color change) of indicators after prevacuum steam sterilization; type: cell-based; details: 4-pulse prevacuum steam 121° C.
Description: as §1, §2, §3, §4, §5

[3] = tested on: enzyme associated with Bacillus stearothermophilus spores; assay: Rapid enzyme fluorescence readout of indicators after hydrogen peroxide plasma sterilization; type: biochemical; details: 1–3 hours after exposure
Description: Sterilization indicators for Examples 6–9 were prepared as described above with the exception that closure member 22 of the sterilization indicator was constructed of TYVEK™ high-density polyethylene fiber material, commercially available from E.I. du Pont de Nemours and Co., Wilmington, Del.
(§6) Sterilization indicators were made as described above with spores that had been coated with each of the chemicals and concentrations listed in Table 6. The indicators were placed in instrument trays and exposed to a hydrogen peroxide plasma sterilization procedure at 45–55° C. in a STERRAD™ 100SI GMP Sterilizer, obtained from Advanced Sterilization Products Co., Irvine, Calif. During the sterilization procedure a vacuum was drawn in the sterilization chamber for 5–6 minutes until the pressure was reduced to 300 mTorr. A 1.8 ml aliquot of an aqueous solution of 58–60% hydrogen peroxide was then injected into the sterilization chamber over a period of about 6 minutes, yielding an empty chamber concentration of […] hydrogen peroxide, and hydrogen peroxide vapor was allowed to diffuse throughout the chamber for 1–22 minutes at 6–10 Torr. A vacuum was then drawn, reducing the pressure to 500 mTorr and removing all detectable hydrogen peroxide vapor from the chamber.
After exposure to the sterilization procedure, the indicators were removed from the sterilizer and the inner containers containing the enzyme substrate and nutrient medium were crushed. The indicators were then incubated at 60° C. and examined for fluorescence every hour for 5 hours using a 3M™ ATTEST™ Model 190 Rapid Autoreader, commercially available from 3M Company, St. Paul, Minn. Additionally, spore growth, as indicated by a color change from purple to yellow, was determined visually after 168 hours of incubation.
The number of growth positive indicators detected after 168 hours of incubation is recorded in Table 6.
as §6, with “7.” for “6.”
as §6, with “8.” for “6.”, “chamber. […]” for “chamber.”

[4] = Example 5, 50 mg/ml coating, 7–13 min
[5] = Example 5, 100 mg/ml coating, 7–13 min
[6] = Example 4, 50 mg/ml coating, 7–18 min
[7] = Example 4, 100 mg/ml coating, 7–18 min

Compound	FLUORESCENCE - PERCENT POSITIVE 1 HR [1, 4] [%]	FLUORESCENCE - PERCENT POSITIVE 2 HR [1, 4] [%]	FLUORESCENCE - PERCENT POSITIVE 3 HR [1, 4] [%]	FLUORESCENCE - PERCENT POSITIVE 4 HR [1, 4] [%]	NO. GROWTH POSITIVE 168 HR [2, 4]	FLUORESCENCE - PERCENT POSITIVE 1 HR [1, 5] [%]	FLUORESCENCE - PERCENT POSITIVE 2 HR [1, 5] [%]	FLUORESCENCE - PERCENT POSITIVE 3 HR [1, 5] [%]	FLUORESCENCE - PERCENT POSITIVE 4 HR [1, 5] [%]	NO. GROWTH POSITIVE 168 HR [2, 5]	accuracy of sterilization indicators compared to indicators made with untreated spores [1]	also measured
POE(15) Glyceryl Monooleate	0	0	0	0	1	–	–	–	–	–	–	–
POE(5) Glyceryl Monooleate	0	0	0	0	2	0	0	0	0	2	–	–
Decaglyceryl Monolaurate	–	–	–	–	–	–	–	–	–	–	improved	FLUORESCENCE - PERCENT POSITIVE 1 HR [1, 6]: 0%; FLUORESCENCE - PERCENT POSITIVE 2 HR [1, 6]: 27.3%; FLUORESCENCE - PERCENT POSITIVE 3 HR [1, 6]: 72.7%; FLUORESCENCE - PERCENT POSITIVE 4 HR [1, 6]: 72.7%; FLUORESCENCE - PERCENT POSITIVE 1 HR [1, 7]: 87%; FLUORESCENCE - PERCENT POSITIVE 2 HR [1, 7]: 100.0%; FLUORESCENCE - PERCENT POSITIVE 3 HR [1, 7]: 100.0%; FLUORESCENCE - PERCENT POSITIVE 4 HR [1, 7]: 100.0%; NO. GROWTH POSITIVE 168 HR [2, 6]: 11; NO. GROWTH POSITIVE 168 HR [2, 7]: 23
Decaglyceryl Monomyristate	0	33.3	33.3	33.3	3	0	100	100	100	2	improved	–
Decaglyceryl Diisostearate	30	80.0	100	100	10	28.6	100.0	100	100	14	improved	–
polyoxyethylene (5) glyceryl monostearate [POE (5) Glyceryl Monostearate]	0	100.0	100.0	100.0	15	0	100	100	100	5	improved	–
O=CC(=O)C=O [1,2,3-Propantrial]	–	–	–	–	–	–	–	–	–	–	–	accuracy of sterilization indicators compared to indicators made with untreated spores [3]: improved
